Tests used:
[1] = test system: IPdR oxidase; assay: Conversion of IPdR to IUdR by cell extracts (human liver); format: in vitro ADME; conditions: 3 samples
Procedure: Rat hepatic tissue was washed with ice-cold 1.15% KCl and blotted dry. The tissue was then homogenized with a tissue homogenizer, in a volume of 1.15% KCl that was 3 times the tissue weight, to form a 25% (w/v) homogenate. The homogenate was then centrifuged at 10,000 g for 10 minutes at 4° C. The resulting supernatant was filtered through Miracloth (similar to cheese cloth) then dialyzed overnight against 50 mM Tris-HCl buffer pH 7.5 and stored at -80° C. before use. Rat hepatocytes were obtained by a perfusion technique then the cells were extracted with 10 mM phosphate buffer, pH 7.5, containing 1M KCl and dialyzed for 4 hours against 50 mM Tris-HCl buffer pH 7.5.
For the standard assay condition, the reaction mixture contained 50 mM Tris-HCl, pH 7.5, 1 mM EDTA, 180 μM of IPdR (or its analogs) and approximately 0.01 mg protein of 10,000 g supernatant of tissue homogenate in a final volume of 500 μl and the incubation was at 37° C. for 10 minutes unless specified otherwise. 300 μl of reaction mixture was removed at the end of incubation and mixed with 630 μl acetonitrile then agitated. […] The samples were reconstituted to the original aliquot volume with the HPLC mobile phase buffer and analyzed on a Alltech RP-18 column. IPdR, IUdR and IU were detected at a UV absorption wavelength of 230 nm, and IPdR was also detected at a UV absorption wavelength of 335 nm. […]

[2] = test system: mixed function oxidase system; assay: IPdR oxidation by mixed function oxidase system from rat liver microsomes; format: in vitro ADME; conditions: with or without NADPH
From the text: (§1) In order to determine which enzyme is responsible for the catalysts of this IPdR oxidation, a series of known oxido-reductases which have similar capability to oxidize a carbon atom with an adjacent amino group into a carbonyl functionality were explored for their ability to catalyze IPdR oxidation. […] A mixed function oxidase system prepared from the microsome of rat liver a broad spectrum of substrates and is NADPH dependent. […] Alcohol dehydrogenase (which can be obtained from Sigma) and alcohol oxidase (which can be obtained from Sigma) both reside in the soluble fraction of liver cell extracts, but the conversion of IPdR to […] was not detected with purified preparation of either enzyme under the same conditions that they converted their natural substrates effectively. […]

[3] = test system: Alcohol dehydrogenase; assay: IPdR conversion by alcohol dehydrogenase; format: biochemical; conditions: purified preparation
From the text: as §1

[4] = test system: alcohol oxidase; assay: IPdR conversion by alcohol oxidase; format: biochemical; conditions: purified preparation
From the text: as §1

[5] = test system: Xanthine oxidase; conditions: shown previously (Lewandowski et al. 1989); cited from earlier work
[6] = test system: HSV-1; conditions: Lewandowski et al. 1989; cited from earlier work

With `O=c1ncc(I)cn1[C@H]1C[C@H](O)[C@@H](CO)O1` [IPdR, 1-(2-deoxy-β-D-ribofuranosyl)-5-(iodo)-2-pyrimidinone] the “Specific activity of the conversion of IPdR to IUdR” value [1] was 2-7 n mole/mg protein/min, the “IPdR oxidase activity of rat liver microsomal fraction” value [2] was “no IPdR oxidase activity” and the “conversion of IPdR by alcohol dehydrogenase” value [3] was “not detected”. For the same molecule, the “conversion of IPdR by alcohol oxidase” value [4] was “not detected”, the “conversion of IPdR to IUdR by xanthine oxidase” value [5] was “could not be converted to IUdR” and the “activity against HSV-1 in cell culture” value [6] was “potent activity”.

From patent publication US5728684A, “Determination of prodrugs metabolizable by the liver and therapeutic use thereof” (priority 1994, dated 1998)
